Consider 23 molecules from US10722514B2 (FLX Bio, Inc., priority 2017, dated 2020).

Counter-ions that a name gives are not always drawn. Like-named read-outs stand apart in the source and are kept apart here. Bounds are passed on as bounds.

This assay addresses T1, recombinant full-length USP7 (Homo sapiens, UniProt Q93009).
T1 construct: A 25 μl reaction volume containing recombinant full-length USP7 (62 pM)
Briefly: USP7-mediated ubiquitin-rhodamine cleavage assay. The format is biochemical. The conditions noted are these: recombinant full-length USP7 62 pM, ubiquitin-rhodamine 100 nM, 1 hour reaction at room temperature. A digest of the protocol:
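Compounds are first incubated with 62 pM enzyme for 30 min at room temperature in pH 7.3 HEPES buffer containing TCEP and BSA. Cleavage of 100 nM ubiquitin-rhodamine proceeds for 1 h before an acid quench, and IC50 is derived from fluorescence.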

Setting [1] is: 30-minute incubation with compound, read-out: Potency: USP7 IC50.
Setting [2] is: 30-minute pre-incubation, read-out: Potency (USP7 IC50).

T1 sequence (Q93009 whole entry): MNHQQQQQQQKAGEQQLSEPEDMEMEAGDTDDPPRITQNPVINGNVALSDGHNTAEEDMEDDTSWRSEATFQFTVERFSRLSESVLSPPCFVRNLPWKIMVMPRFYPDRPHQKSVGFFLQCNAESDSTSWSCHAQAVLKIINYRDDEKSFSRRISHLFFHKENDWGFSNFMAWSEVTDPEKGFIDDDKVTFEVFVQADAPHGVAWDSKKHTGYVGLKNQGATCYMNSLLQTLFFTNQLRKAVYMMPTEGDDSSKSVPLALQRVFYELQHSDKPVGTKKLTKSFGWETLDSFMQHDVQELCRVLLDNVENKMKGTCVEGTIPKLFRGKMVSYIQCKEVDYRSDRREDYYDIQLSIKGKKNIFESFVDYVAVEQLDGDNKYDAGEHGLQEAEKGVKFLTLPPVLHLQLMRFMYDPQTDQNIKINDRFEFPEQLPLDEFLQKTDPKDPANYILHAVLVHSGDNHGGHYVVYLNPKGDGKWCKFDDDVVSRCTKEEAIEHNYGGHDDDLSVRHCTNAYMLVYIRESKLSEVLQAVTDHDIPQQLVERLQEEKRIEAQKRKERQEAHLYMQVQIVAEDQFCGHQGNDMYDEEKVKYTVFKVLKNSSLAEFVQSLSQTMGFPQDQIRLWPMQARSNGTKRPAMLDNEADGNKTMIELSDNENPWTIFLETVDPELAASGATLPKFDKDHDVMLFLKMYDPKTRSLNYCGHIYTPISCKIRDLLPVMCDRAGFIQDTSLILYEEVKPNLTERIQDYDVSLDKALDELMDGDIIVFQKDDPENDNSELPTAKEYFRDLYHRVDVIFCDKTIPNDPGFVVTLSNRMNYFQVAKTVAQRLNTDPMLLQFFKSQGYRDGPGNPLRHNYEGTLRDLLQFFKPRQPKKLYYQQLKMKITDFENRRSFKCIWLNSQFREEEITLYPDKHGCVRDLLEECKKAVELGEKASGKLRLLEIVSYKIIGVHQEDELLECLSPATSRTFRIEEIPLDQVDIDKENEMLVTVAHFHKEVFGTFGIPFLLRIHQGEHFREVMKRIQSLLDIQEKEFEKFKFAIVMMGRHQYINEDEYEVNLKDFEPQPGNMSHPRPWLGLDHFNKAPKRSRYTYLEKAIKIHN

The IC50 is the point on the concentration scale where inhibition reaches its midpoint. In the case of `Cc1cc(Cl)cc(-c2ccnc3cc(CN4C(=O)C5C(C4=O)C5(C)C)sc23)c1O[C@@H]1CCNC[C@@H]1F` (stereo partly drawn) [Example 382, 3-[[7-[5-chloro-2-[[(3S,4R)-3-fluoro-4-piperidyl]oxy]-3-methyl-phenyl]thieno[3,2-b]pyridin-2-yl]methyl]-6,6-dimethyl-3-azabicyclo[3.1.0]hexane-2,4-dione; 2,2,2-trifluoroacetic acid], the IC50 under setting [1] is less than 1000 nM.

Regarding `Cc1cc(Cl)cc(-c2ccnc3cc(CN4C(=O)C5C(C4=O)C5(C)C)sc23)c1O[C@H]1CCNC[C@@H]1F` (stereo partly drawn) [Example 383, 3-[[7-[5-chloro-2-[[(3S,4S)-3-fluoro-4-piperidyl]oxy]-3-methyl-phenyl]thieno[3,2-b]pyridin-2-yl]methyl]-6,6-dimethyl-3-azabicyclo[3.1.0]hexane-2,4-dione; 2,2,2-trifluoroacetic acid], the IC50 under setting [1] was less than 1000 nM.

Consider `O=C(O)C(F)(F)F.[2H]C1([2H])C(=O)N(Cc2cc3nccc(-c4cc(Cl)cc(C)c4O[C@@H]4CNC[C@@H]4F)c3s2)C(=O)C1([2H])[2H]` [Example 384, 1-[[7-[5-chloro-2-[(3R,4S)-4-fluoropyrrolidin-3-yl]oxy-3-methyl-phenyl]thieno[3,2-b]pyridin-2-yl]methyl]-3,3,4,4-tetradeuterio-pyrrolidine-2,5-dione; 2,2,2-trifluoroacetic acid], for which, under setting [1], the IC50 was less than 1000 nM.

Turning to `Cc1cc(Cl)cc(-c2ccnc3cc(Cn4cnc5ccccc5c4=O)sc23)c1O[C@H]1CCCNC1` [Example 385, 3-[[7-[5-chloro-3-methyl-2-[[(3S)-3-piperidyl]oxy]phenyl]thieno[3,2-b]pyridin-2-yl]methyl]quinazolin-4-one; 2,2,2-trifluoroacetic acid], under setting [1], the IC50 fell in the range of 1000 to 10000 nM.

Consider `Cc1cc(Cl)cc(-c2ncnc3cc(CN4C(=O)C5C(C4=O)C5(C)C)sc23)c1OC1CNCC1(C)F` (centres unmarked) [Example 386, 3-[[4-[5-chloro-2-(4-fluoro-4-methyl-pyrrolidin-3-yl)oxy-3-methyl-phenyl]thieno[3,2-d]pyrimidin-6-yl]methyl]-6,6-dimethyl-3-azabicyclo[3.1.0]hexane-2,4-dione dihydrochloride], for which the IC50 under setting [1] is less than 1000 nM.

As for `Cn1nc2c(c1C1Cc3cc(Cl)cc(-c4ccnc5cc(CN6C(=O)C7C(C6=O)C7(C)C)sc45)c3O1)CNCC2` [Example 387, 3-[[7-[(2R)-5-chloro-2-(2-methyl-4,5,6,7-tetrahydropyraozlo[4,3-c]pyridin-3-yl)-2,3-dihydrobenzofuran-7-yl]thieno[3,2-b]pyridin-2-yl]methyl]-6,6-dimethyl-3-azabicyclo[3.1.0]hexane-2,4-dione dihydrochloride], under setting [1], the IC50 was less than 1000 nM.

`CO[C@H]1CNC[C@H]1Oc1c(C)cc(Cl)cc1-c1ccnc2cc(CN3C(=O)C4C(C3=O)C4(C)C)sc12` (stereo partly drawn) [Example 388, 3-[[7-[5-chloro-2-[(3R,4S)-4-methoxypyrrolidin-3-yl]oxy-3-methyl-phenyl]thieno[3,2-b]pyridin-2-yl]methyl]-6,6-dimethyl-3-azabicyclo[3.1.0]hexane-2,4-dione dihydrochloride]: the IC50 under setting [1] was less than 1000 nM.

As to `Cc1cc(Cl)cc(-c2ccnc3cc(CN4C(=O)C5C(C4=O)C5(C)C)sc23)c1O[C@@H]1CNC[C@@H]1C(F)F` (stereo partly drawn) [Example 389, 3-[[7-[5-chloro-2-[(3S,4S)-4-(difluoromethyl)pyrrolidin-3-yl]oxy-3-methyl-phenyl]thieno[3,2-b]pyridin-2-yl]methyl]-6,6-dimethyl-3-azabicyclo[3.1.0]hexane-2,4-dione dihydrochloride], the IC50 under setting [1] is less than 1000 nM.

Turning to `Cc1cc(Cl)cc(-c2ncnc3cc(CN4C(=O)C5C(C4=O)C5(C)C)sc23)c1O[C@@H]1C[C@@H]2C[C@H]1N(C)C2` (stereo partly drawn) [Example 390, 3-[[4-[5-chloro-3-methyl-2-[[(1S,4R,5R)-3-methyl-3-azabicyclo[2.2.1]heptan-5-yl]oxy]phenyl]thieno[3,2-d]pyrimidin-6-yl]methyl]-6,6-dimethyl-3-azabicyclo[3.1.0]hexane-2,4-dione dihydrochloride], the IC50 under setting [1] was less than 1000 nM.

Regarding `Cc1cc(Cl)cc(-c2ccnc3cc(CN4C(=O)C5C(C4=O)C5(C)C)sc23)c1O[C@@H]1CCNC[C@@H]1F` (stereo partly drawn) [Example 391, 3-[[7-[5-chloro-2-[[(3S,4R)-3-fluoro-4-piperidyl]oxy]-3-methyl-phenyl]thieno[3,2-b]pyridin-2-yl]methyl]-6,6-dimethyl-3-azabicyclo[3.1.0]hexane-2,4-dione; 2,2,2-trifluoroacetic acid], the IC50 under setting [1] was less than 1000 nM.

For `Cc1cc(Cl)cc(-c2ccnc3cc(CN4C(=O)C5C(C4=O)C5(C)C)sc23)c1O[C@H]1CCNC[C@H]1F` (stereo partly drawn) [Example 392, 3-[[7-[5-chloro-2-[[(3R,4S)-3-fluoro-4-piperidyl]oxy]-3-methyl-phenyl]thieno[3,2-b]pyridin-2-yl]methyl]-6,6-dimethyl-3-azabicyclo[3.1.0]hexane-2,4-dione; 2,2,2-trifluoroacetic acid], under setting [1], the IC50 is less than 1000 nM.

On to `Cc1cc(Cl)cc(-c2ccnc3cc(CN4C(=O)C5C(C4=O)C5(C)C)sc23)c1OC1(C)CNC1` (centres unmarked) [Example 393, 3-[[7-[5-chloro-3-methyl-2-(3-methylazetidin-3-yl)oxy-phenyl]thieno[3,2-b]pyridin-2-yl]methyl]-6,6-dimethyl-3-azabicyclo[3.1.0]hexane-2,4-dione dihydrochloride], for which the IC50 under setting [1] was less than 1000 nM.

For `Cc1cc(Cl)cc(-c2ccnc3cc(CN4C(=O)C5C(C4=O)C5(C)C)sc23)c1O[C@H]1CC[C@H](N)C1` (stereo partly drawn) [Example 394, 3-[[7-[2-[(1S,3S)-3-aminocyclopentoxy]-5-chloro-3-methyl-phenyl]thieno[3,2-b]pyridin-2-yl]methyl]-6,6-dimethyl-3-azabicyclo[3.1.0]hexane-2,4-dione dihydrochloride], under setting [1], the IC50 was less than 1000 nM.

In the case of `Cc1cc(Cl)cc(-c2ncnc3cc(CN4C(=O)C5C(C4=O)C5(C)C)sc23)c1OCC1(C)CNC1` (centres unmarked) [Example 395, 3-[[4-[5-chloro-3-methyl-2-[(3-methylazetidin-3-yl)methoxy]phenyl]thieno[3,2-d]pyrimidin-6-yl]methyl]-6,6-dimethyl-3-azabicyclo[3.1.0]hexane-2,4-dione], under setting [1], the IC50 was less than 1000 nM.

Take `Cc1cc(Cl)cc(-c2ccnc3cc([C@H](C)N4C(=O)C5C(C4=O)C5(C)C)sc23)c1OC1CCC(C)NC1` (stereo partly drawn) [Example 396, 3-[(1S)-1-[7-[5-chloro-3-methyl-2-[(6-methyl-3-piperidyl)oxy]phenyl]thieno[3,2-b]pyridin-2-yl]ethyl]-6,6-dimethyl-3-azabicyclo[3.1.0]hexane-2,4-dione; 2,2,2-trifluoroacetic acid]: the half-inhibitory concentration (IC50) under setting [1] is less than 1000 nM.

`Cc1cc(Cl)cc(-c2ccnc3cc([C@@H](C)N4C(=O)C5C(C4=O)C5(C)C)sc23)c1OC1CCC(C)NC1` (stereo partly drawn) [Example 397, 3-[(1R)-1-[7-[5-chloro-3-methyl-2-[(6-methyl-3-piperidyl)oxy]phenyl]thieno[3,2-b]pyridin-2-yl]ethyl]-6,6-dimethyl-3-azabicyclo[3.1.0]hexane-2,4-dione; 2,2,2-trifluoroacetic acid]: under setting [1], the IC50 is less than 1000 nM.

As for `Cc1cc(Cl)cc(-c2ccnc3cc(CN4C(=O)C5C(C4=O)C5(C)C)sc23)c1O[C@H]1CC[C@H](C)NC1` (stereo partly drawn) [Example 399, 3-[[7-[5-chloro-3-methyl-2-[[(3S,6S)-6-methyl-3-piperidyl]oxy]phenyl]thieno[3,2-b]pyridin-2-yl]methyl]-6,6-dimethyl-3-azabicycllo[3.1.0]hexane-2,4-dione; 2,2,2-trifluoroacetic acid], the IC50 under setting [1] is less than 1000 nM.

For `Cc1cc(Cl)cc(-c2ccnc3cc(CN4C(=O)C5C(C4=O)C5(C)C)sc23)c1OCC1(C)CNC1` (centres unmarked) [Example 400, 3-[[7-[5-chloro-3-methyl-2-[(3-methylazetidin-3-yl)methoxy]phenyl]thieno[3,2-b]pyridin-2-yl]methyl]-6,6-dimethyl-3-azabicyclo[3.1.0]hexane-2,4-dione], the half-maximal inhibitory concentration (IC50) under setting [1] was less than 1000 nM.

For the molecule `CCOC(=O)NN(Cc1cc2nccc(-c3cc(Cl)cc(C)c3O[C@@H]3CCNC[C@@H]3C)c2s1)C(=O)OCC` [Example 402, ethyl N-[[7-[5-chloro-3-methyl-2-[[(3S,4R)-3-methyl-4-piperidyl]oxy]phenyl]thieno[3,2-b]pyridin-2-yl]methyl]-N-(ethoxycarbonylamino)carbamate], the IC50 under setting [1] was less than 1000 nM.

On to `O=C1CNC(=O)N1Cc1cc2ncnc(-c3cccc(OC(F)(F)F)c3)c2s1` [Example 403, 3-[[4-[3-(trifluoromethoxy)phenyl]thieno[3,2-d]pyrimidin-6-yl]methyl]imidazolidine-2,4-dione], for which the IC50 under setting [1] lay in the range of 1000 to 10000 nM.

Consider `Cc1cc([N+](=O)[O-])cc(-c2ccnc3cc(Cn4c(=O)ccn(CC(F)(F)F)c4=O)sc23)c1Oc1ccnn1C` [Example 404, 3-[[7-[3-methyl-2-(2-methylpyrazol-3-yl)oxy-5-nitro-phenyl]thieno[3,2-b]pyridin-2-yl]methyl]-1-(2,2,2-trifluoroethyl)pyrimidine-2,4-dione; 2,2,2-trifluoroacetic acid], for which, under setting [2], the IC50 was less than 1000 nM.

Regarding `Cc1cc(Cl)cc(-c2ccnc3cc(Cn4c(=O)ccn(CC(F)(F)F)c4=O)sc23)c1OC1CNCC[C@@]1(C)F` (stereo partly drawn) [Example 405, 3-[[7-[5-chloro-2-[[(4R)-4-fluoro-4-methyl-3-piperidyl]oxy]-3-methyl-phenyl]thieno[3,2-b]pyridin-2-yl]methyl]-1-(2,2,2-trifluoroethyl)pyrimidine-2,4-dione; 2,2,2-trifluoroacetic acid], the half-maximal inhibitory concentration (IC50) under setting [2] is less than 1000 nM.

Turning to `Cc1cc(Cl)cc(-c2ccnc3cc(Cn4c(=O)ccn(CC(F)(F)F)c4=O)sc23)c1OC1CNC[C@@]1(C)F` (stereo partly drawn) [Example 406, 3-[[7-[5-chloro-2-[(4R)-4-fluoro-4-methyl-pyrrolidin-3-yl]oxy-3-methyl-phenyl]thieno[3,2-b]pyridin-2-yl]methyl]-1-(2,2,2-trifluoroethyl)pyrimidine-2,4-dione; 2,2,2-trifluoroacetic acid], the IC50 under setting [2] is less than 1000 nM.
